Experimental data as given in patent US10882844B2, “Compounds useful as immunomodulators” (Bristol-Myers Squibb Company, priority 2016, dated 2021).
Read-outs that look alike come from different tables or passages of the source.

Target: PD-1/PD-L1 (Homo sapiens (Human), UniProt Q9NZQ7)
Assay: PD-1/PD-L1 Homogenous Time-Resolved Fluorescence (HTRF) binding assay
Details: PD-1-Ig / PD-L1-His HTRF, read-out: Range or IC50
From the text: The ability of the compounds of formula (I) to bind to PD-L1 was investigated using a PD-1/PD-L1 Homogenous Time-Resolved Fluorescence (HTRF) binding assay.
Homogenous Time-Resolved Fluorescence (HTRF) binding assay.
The interaction of PD-1 and PD-L1 can be assessed using soluble, purified preparations of the extracellular domains of the two proteins. The PD-1 and PD-L1 protein extracellular domains were expressed as fusion proteins with detection tags, for PD-1, the tag was the Fc portion of Immunoglobulin (PD-1-Ig) and for PD-L1 it was the 6 histidine motif (PD-L1-His). All binding studies were performed in an HTRF assay buffer consisting of dPBS supplemented with 0.1% […] bovine serum albumin and 0.05% (v/v) Tween-20. For the h/PD-L1-His binding assay, inhibitors were pre-incubated with PD-L1-His (10 nM final) for 15 m in 4 μl of assay buffer, followed by addition of PD-1-Ig (20 nM final) in 1 μl of assay buffer and further incubation for 15 m. HTRF detection was achieved using europium crypate-labeled anti-Ig (1 nM final) and allophycocyanin (APC) labeled anti-His (20 nM final). Antibodies were diluted in HTRF detection buffer and 5 μl was dispensed on top of the binding reaction. The reaction mixture was allowed to equilibrate for 30 minutes and the resulting signal (665 nm/620 nm ratio) was obtained using an EnVision fluorometer. Additional binding assays were established between the human proteins PD-1-Ig/PD-L2-His (20 & 5 nM, respectively) and CD8O-His/PD-L1-Ig (100 & 10 nM, respectively).
Recombinant Proteins: Human PD-1 (25-167) with a C-terminal human Fc domain of immunoglobulin G (Ig) epitope tag [hPD-1 (25-167)-3S-IG] and human PD-L1 (18-239) with a C-terminal His epitope tag [hPD-L1(18-239)-TVMV-His] were expressed in HEK293T cells and purified sequentially by ProteinA affinity chromatography and size exclusion chromatography. Human PD-L2-His and CD80-His was obtained through commercial sources.
The table below lists the IC50 values for representative examples of this disclosure measured in the PD-1/PD-L1 Homogenous Time-Resolved Fluorescence (HTRF) binding assay. Ranges are as follows: A=0.18 nM-0.99 nM; B=1.0 nM-5.0 nM; C=5.01 nM-10.1 nM; D=10.2 nM-200 nM; E=201 nM→10 uM

Sequence of PD-1/PD-L1 (Q9NZQ7 other isoform, or with tags, fused parts or gaps): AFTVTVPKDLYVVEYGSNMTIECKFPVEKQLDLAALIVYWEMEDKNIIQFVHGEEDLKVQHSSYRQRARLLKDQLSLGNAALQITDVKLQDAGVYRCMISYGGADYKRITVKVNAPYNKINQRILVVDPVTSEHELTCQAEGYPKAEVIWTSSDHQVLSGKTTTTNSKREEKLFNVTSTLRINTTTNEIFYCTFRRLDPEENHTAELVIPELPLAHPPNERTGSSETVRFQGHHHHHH

IC50 (value given as range class) [nM]	IC50 (value given as number) [nM]	SMILES
0.18 to 0.99	–	Cc1c(COc2cc(OCc3cncc(C#N)c3)c(CN3CCCC[C@H]3C(=O)O)cc2Cl)cccc1-c1ccc2oc(C3CCN(C)CC3)nc2c1 [Example 1001, (S)-1-(5-chloro-2-((5-cyanopyridin-3-yl)methoxy)-4-((2-methyl-3-(2-(1-methylpiperidin-4-yl)benzo[d]oxazol-5-yl)benzyl)oxy)benzyl)piperidine-2-carboxylic Acid]
1 to 5	–	Cc1c(COc2cc(OCc3cncc(C#N)c3)c(CN3CCCC[C@H]3C(=O)O)cc2Cl)cccc1-c1ccc2oc(C3CCN(C(C)C)CC3)nc2c1 [Example 1013, (S)-1-(5-chloro-2-((5-cyanopyridin-3-yl)methoxy)-4-((3-(2-(1-isopropylpiperidin-4-yl)benzo[d]oxazol-5-yl)-2-methylbenzyl)oxy)benzyl)piperidine-2-carboxylic Acid]
1 to 5	–	Cc1c(COc2cc(OCc3cncc(C#N)c3)c(CN3CCCC[C@H]3C(=O)O)cc2Cl)cccc1-c1ccc2oc(C3(C)CCNCC3)nc2c1 [Example 1011, (S)-1-(5-chloro-2-((5-cyanopyridin-3-yl)methoxy)-4-((2-methyl-3-(2-(4-methylpiperidin-4-yl)benzo[d]oxazol-5-yl)benzyl)oxy)benzyl)piperidine-2-carboxylic Acid]
1 to 5	–	Cc1c(COc2cc(OCc3cncc(C#N)c3)c(CN3CCCC[C@H]3C(=O)O)cc2Cl)cccc1-c1ccc2oc(C3CCCN(C)C3)nc2c1 (stereo partly drawn) [Example 1003, (2S)-1-(5-chloro-2-((5-cyanopyridin-3-yl)methoxy)-4-((2-methyl-3-(2-(1-methylpiperidin-3-yl)benzo[d]oxazol-5-yl)benzyl)oxy)benzyl)piperidine-2-carboxylic Acid]
1 to 5	–	Cc1c(COc2cc(OCc3cncc(C#N)c3)c(CN3CCCC[C@H]3C(=O)O)cc2Cl)cccc1-c1ccc2oc(C3CCNCC3)nc2c1 [Example 1004, (S)-1-(5-chloro-2-((5-cyanopyridin-3-yl)methoxy)-4-((2-methyl-3-(2-(piperidin-4-yl)benzo[d]oxazol-5-yl)benzyl)oxy)benzyl)piperidine-2-carboxylic Acid]
0.18 to 0.99	–	Cc1c(COc2cc(OCc3cncc(C#N)c3)c(CN3CCCC[C@H]3C(=O)O)cc2Cl)cccc1-c1ccc2oc(C3CCOCC3)nc2c1 [Example 1017, (S)-1-(5-chloro-2-((5-cyanopyridin-3-yl)methoxy)-4-((2-methyl-3-(2-(tetrahydro-2H-pyran-4-yl)benzo[d]oxazol-5-yl)benzyl)oxy)benzyl)piperidine-2-carboxylic Acid]

The remaining lines, values behind:

SMILES	IC50 (value given as range class) [nM]	IC50 (value given as number) [nM]
Cc1c(COc2cc(OCc3cncc(C#N)c3)c(CNC(C)(CO)CO)cc2Cl)cccc1-c1ccc2oc(N3CCN(C)CC3)nc2c1 [Example 2009]	0.18 to 0.99	–
Cc1c(COc2cc(OCc3cncc(C#N)c3)c(CN3CCCC[C@H]3C(=O)O)cc2Cl)cccc1-c1ccc2ncc(N3CCN(C)CC3)nc2c1 [Example 1031, (S)-1-(5-chloro-2-((5-cyanopyridin-3-yl)methoxy)-4-((2-methyl-3-(3-(4-methylpiperazin-1-yl)quinoxalin-6-yl)benzyl)oxy)benzyl)piperidine-2-carboxylic Acid]	5.01 to 10.1	–
Cc1c(COc2cc(OCc3cncc(C#N)c3)c(CN3CCCC[C@H]3C(=O)O)cc2Cl)cccc1-c1ccc2oc(C3CCC(C(=O)O)CC3)nc2c1 (single isomer, unassigned) [Example 1025]	0.18 to 0.99	–
Cc1c(COc2cc(OCc3cncc(C#N)c3)c(CN(C)C(C)(CO)CO)cc2Cl)cccc1-c1ccc2oc(N3CCN(C)CC3)nc2c1 [Example 2015]	0.18 to 0.99	–
Cc1c(COc2cc(OCc3cncc(C#N)c3)c(C=O)cc2Cl)cccc1-c1ccc2oc(C3CCN(C)CC3)nc2c1 [Example 1019, 5-((4-chloro-2-formyl-5-((2-methyl-3-(2-(1-methylpiperidin-4-yl)benzo[d]oxazol-5-yl)benzyl)oxy)phenoxy)methyl)nicotinonitrile]	5.01 to 10.1	–
Cc1c(COc2cc(OCc3cncc(C#N)c3)c(CN3CCCC[C@H]3C(=O)O)cc2Cl)cccc1-c1ccc2oc(C3CCN(C)CC3)nc2c1C [Example 1010, (S)-1-(5-chloro-2-((5-cyanopyridin-3-yl)methoxy)-4-((2-methyl-3-(4-methyl-2-(1-methylpiperidin-4-yl)benzo[d]oxazol-5-yl)benzyl)oxy)benzyl)piperidine-2-carboxylic Acid]	1 to 5	–
Cc1c(COc2cc(OCc3cncc(C#N)c3)c(CN3CCCC[C@H]3C(=O)O)cc2Cl)cccc1-c1ccc2oc(C3CC4CCC(C3)N4)nc2c1 (stereo partly drawn) [Example 1006, (2S)-1-(4-((3-(2-(8-azabicyclo[3.2.1]octan-3-yl)benzo[d]oxazol-5-yl)-2-methylbenzyl)oxy)-5-chloro-2-((5-cyanopyridin-3-yl)methoxy)benzyl)piperidine-2-carboxylic Acid]	1 to 5	–
Cc1c(COc2cc(OCc3cncc(C#N)c3)c(CN(C)[C@@](C)(CO)C(=O)O)cc2Cl)cccc1-c1ccc2oc(N3CCN(C)CC3)nc2c1 [Example 2017, (S)-2-((5-chloro-2-((5-cyanopyridin-3-yl)methoxy)-4-((2-methyl-3-(2-(4-methylpiperazin-1-yl)benzo[d]oxazol-5-yl)benzyl)oxy)benzyl)(methyl)amino)-3-hydroxy-2-methylpropanoic Acid]	0.18 to 0.99	–
CCC[C@H](NCc1cc(Cl)c(OCc2cccc(-c3ccc4oc(N5CCN(C)CC5)nc4c3)c2C)cc1OCc1cncc(C#N)c1)C(=O)O [Example 2012, (S)-2-((5-chloro-2-((5-cyanopyridin-3-yl)methoxy)-4-((2-methyl-3-(2-(4-methylpiperazin-1-yl)benzo[d]oxazol-5-yl)benzyl)oxy)benzyl)amino)pentanoic Acid]	–	7.2
Cc1c(COc2cc(OCc3cncc(C#N)c3)c(CN3CCCC[C@H]3C(=O)O)cc2Cl)cccc1-c1ccc2oc(C3CCN(CC(=O)O)CC3)nc2c1 [Example 1016, (S)-1-(4-((3-(2-(1-(carboxymethyl)piperidin-4-yl)benzo[d]oxazol-5-yl)-2-methylbenzyl)oxy)-5-chloro-2-((5-cyanopyridin-3-yl)methoxy)benzyl)piperidine-2-carboxylic Acid]	0.18 to 0.99	–
Cc1c(COc2cc(OCc3cncc(C#N)c3)c(CN3CCCC[C@H]3C(=O)O)cc2Cl)cccc1-c1ccc2oc(C3CC4CCC(C3)N4C)nc2c1 (stereo partly drawn) [Example 1014, (2S)-1-(5-chloro-2-((5-cyanopyridin-3-yl)methoxy)-4-((2-methyl-3-(2-(8-methyl-8-azabicyclo[3.2.1]octan-3-yl)benzo[d]oxazol-5-yl)benzyl)oxy)benzyl)piperidine-2-carboxylic Acid]	1 to 5	–
Cc1c(COc2cc(OCc3cncc(C#N)c3)c(CN(C)[C@@H](CO)C(=O)O)cc2Cl)cccc1-c1ccc2oc(N3CCN(C)CC3)nc2c1 [Example 2016, N-(5-chloro-2-((5-cyanopyridin-3-yl)methoxy)-4-((2-methyl-3-(2-(4-methylpiperazin-1-yl)benzo[d]oxazol-5-yl)benzyl)oxy)benzyl)-N-methyl-L-serine]	1 to 5	–
Cc1c(COc2cc(OCc3cncc(C#N)c3)c(CN[C@H](C(=O)O)C(C)C)cc2Cl)cccc1-c1ccc2oc(N3CCN(C)CC3)nc2c1 [Example 2013, (S)-2-((5-chloro-2-((5-cyanopyridin-3-yl)methoxy)-4-((2-methyl-3-(2-(4-methylpiperazin-1-yl)benzo[d]oxazol-5-yl)benzyl)oxy)benzyl)amino)-3-methylbutanoic Acid]	1 to 5	–
Cc1c(COc2cc(OCc3cncc(C#N)c3)c(CN3CCCC[C@H]3C(=O)O)cc2Cl)cccc1-c1cc(C)c2oc(C3CCN(C)CC3)nc2c1 [Example 1009, (S)-1-(5-chloro-2-((5-cyanopyridin-3-yl)methoxy)-4-((2-methyl-3-(7-methyl-2-(1-methylpiperidin-4-yl)benzo[d]oxazol-5-yl)benzyl)oxy)benzyl)piperidine-2-carboxylic Acid]	1 to 5	–
Cc1c(COc2cc(OCc3cncc(C#N)c3)c(CN3CCCC[C@H]3C(=O)O)cc2Cl)cccc1-c1ccc2ncc(C3=CCCNC3)nc2c1 [Example 1027, (S)-1-(5-Chloro-2-((5-cyanopyridin-3-yl)methoxy)-4-((2-methyl-3-(3-(1,2,5,6-tetra-hydropyridin-3-yl)quinoxalin-6-yl)benzyl)oxy)benzyl)piperidine-2-carboxylic Acid]	–	1.7
